Test results: the supplement of paper PMC8617591

What was measured:
[1] = system: Mycobacterium tuberculosis Erdman (autoluminescent); assay: total FIC50 (Loewe) at 50% inhibition, three-drug combination (log2); higher = more antagonistic
Procedure: (§1)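 DiaMOND equipotent three-drug combination dose responses (10 doses, 1.5- or 2-fold spacing, centred on IC90) against autoluminescent M. tuberculosis Erdman in 8 in vitro models. Read-out is OD600, or luminescence for the intracellular and dormancy models, normalised to untreated wells. Hill-fit Einf, AUC25 and GRinf are potency metrics; FIC50 and FIC90 are total Loewe fractional inhibitory concentrations as log2 (negative = synergy).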

[2] = system: Mycobacterium tuberculosis Erdman (autoluminescent); assay: total FIC90 (Loewe) at 90% inhibition, three-drug combination (log2); higher = more antagonistic
Procedure: as §1

[3] = system: Mycobacterium tuberculosis Erdman (autoluminescent); assay: Einf, fitted maximum growth inhibition of three-drug combination (fraction); higher = stronger maximal inhibition
Procedure: as §1

[4] = system: Mycobacterium tuberculosis Erdman (autoluminescent); assay: AUC25, normalised area under dose response up to IC25 (three-drug combination) (fraction (0-1)); higher = more potent at low dose
Procedure: as §1

[5] = system: Mycobacterium tuberculosis Erdman (autoluminescent); assay: GRinf, maximum normalised growth rate inhibition (three-drug combination) (unitless (-1 to 1)); higher = less effect (negative = killing)
Procedure: as §1

CC[C@@H](CO)NCCN[C@@H](CC)CO [ethambutol] + O=[N+]([O-])c1cn2c(n1)OC[C@@H](OCc1ccc(OC(F)(F)F)cc1)C2 [pretomanid] + NC(=O)c1cnccn1 [pyrazinamide]
Details	AUC25, [4]	Einf, [3]	GRinf, [5]	total FIC50, [1]	total FIC90, [2]
in vitro model: acidic pH 5.7, time point: constant (~7 days, model-specific)	0.122	0.735	-0.0977	-0.536	–
in vitro model: acidic pH 5.7, time point: terminal (~4-5 doublings, model-specific)	0.091	0.962	-0.384	0.211	-1.13
in vitro model: intracellular J774, time point: constant = terminal	–	0.983	-0.544	–	-0.753

Details	AUC25, [4]	Einf, [3]	GRinf, [5]	total FIC50, [1]	total FIC90, [2]
in vitro model: butyrate, time point: constant (~7 days, model-specific)	0.0885	0.898	0.0512	0.0336	–
in vitro model: butyrate, time point: terminal (~4-5 doublings, model-specific)	0.0789	0.949	0.0472	0.0804	0.185
in vitro model: cholesterol 0.05 mM, time point: constant (~7 days, model-specific)	0.13	0.709	-0.334	–	–
in vitro model: cholesterol 0.05 mM, time point: terminal (~4-5 doublings, model-specific)	0.129	0.723	-0.277	0.522	–
in vitro model: cholesterol-high 0.2 mM, time point: constant (~7 days, model-specific)	0.0837	0.876	-0.121	0.648	–
in vitro model: cholesterol-high 0.2 mM, time point: terminal (~4-5 doublings, model-specific)	0.0682	0.992	-0.572	0.65	1.05
in vitro model: dormancy (butyrate + nitrate, low O2), time point: constant (~7 days, model-specific)	0.127	0.844	0.4	-0.415	–
in vitro model: dormancy (butyrate + nitrate, low O2), time point: terminal (~4-5 doublings, model-specific)	0.11	0.967	-0.312	0.312	1.35
in vitro model: standard 7H9 glycerol, time point: constant = terminal	0.0755	0.913	0.125	0.461	–
in vitro model: valerate, time point: constant (~7 days, model-specific)	0.0698	0.882	0.0142	-0.111	–
in vitro model: valerate, time point: terminal (~4-5 doublings, model-specific)	0.0514	0.919	0.0593	0.0754	-0.361

NNC(=O)c1ccncc1 [isoniazid] + CC(=O)NC[C@H]1CN(c2ccc(N3CCOCC3)c(F)c2)C(=O)O1 [linezolid] + CO[C@H]1/C=C/O[C@@]2(C)Oc3c(C)c(O)c4c(O)c(c(/C=N/N5CCN(C6CCCC6)CC5)c(O)c4c3C2=O)NC(=O)/C(C)=C\C=C\[C@H](C)[C@H](O)[C@@H](C)[C@@H](O)[C@@H](C)[C@H](OC(C)=O)[C@@H]1C [rifapentine]
Details	AUC25, [4]	Einf, [3]	GRinf, [5]	total FIC50, [1]	total FIC90, [2]
in vitro model: acidic pH 5.7, time point: constant (~7 days, model-specific)	0.0908	0.853	-0.0954	0.653	–
in vitro model: acidic pH 5.7, time point: terminal (~4-5 doublings, model-specific)	0.0757	0.977	-0.138	0.526	0.636
in vitro model: intracellular J774, time point: constant = terminal	–	0.946	-0.138	–	0.00443

Details	AUC25, [4]	Einf, [3]	GRinf, [5]	total FIC50, [1]	total FIC90, [2]
in vitro model: butyrate, time point: constant (~7 days, model-specific)	0.0823	0.894	0.1	0.461	1.07
in vitro model: butyrate, time point: terminal (~4-5 doublings, model-specific)	0.0501	0.94	0.0909	0.377	0.0682
in vitro model: cholesterol 0.05 mM, time point: constant (~7 days, model-specific)	0.153	0.735	-0.233	0.774	–
in vitro model: cholesterol 0.05 mM, time point: terminal (~4-5 doublings, model-specific)	0.125	0.921	-0.273	0.542	0.792
in vitro model: cholesterol-high 0.2 mM, time point: constant (~7 days, model-specific)	0.0853	0.833	-0.0945	0.52	–
in vitro model: cholesterol-high 0.2 mM, time point: terminal (~4-5 doublings, model-specific)	0.093	1	-0.883	0.739	0.834
in vitro model: dormancy (butyrate + nitrate, low O2), time point: constant (~7 days, model-specific)	0.0503	0.879	0.222	1.15	0.705
in vitro model: dormancy (butyrate + nitrate, low O2), time point: terminal (~4-5 doublings, model-specific)	0.0276	0.984	-0.167	0.72	0.385
in vitro model: standard 7H9 glycerol, time point: constant = terminal	0.0681	0.902	0.155	0.53	1.15
in vitro model: valerate, time point: constant (~7 days, model-specific)	0.0749	0.839	0.0814	0.038	–
in vitro model: valerate, time point: terminal (~4-5 doublings, model-specific)	0.0444	0.931	0.0271	0.299	0.267

NNC(=O)c1ccncc1 [isoniazid] + CC(=O)NC[C@H]1CN(c2ccc(N3CCOCC3)c(F)c2)C(=O)O1 [linezolid] + CO[C@H]1/C=C/O[C@@]2(C)Oc3c(C)c(O)c4c(O)c(c(/C=N/N5CCN(C)CC5)c(O)c4c3C2=O)NC(=O)/C(C)=C\C=C\[C@H](C)[C@H](O)[C@@H](C)[C@@H](O)[C@@H](C)[C@H](OC(C)=O)[C@@H]1C [rifampicin]
Details	AUC25, [4]	Einf, [3]	GRinf, [5]	total FIC50, [1]	total FIC90, [2]
in vitro model: acidic pH 5.7, time point: constant (~7 days, model-specific)	0.073	0.841	-0.0845	0.571	–
in vitro model: acidic pH 5.7, time point: terminal (~4-5 doublings, model-specific)	0.0682	0.972	-0.116	0.505	0.335
in vitro model: intracellular J774, time point: constant = terminal	–	0.947	-0.188	–	-0.141

Details	AUC25, [4]	Einf, [3]	GRinf, [5]	total FIC50, [1]	total FIC90, [2]
in vitro model: butyrate, time point: constant (~7 days, model-specific)	0.0943	0.915	0.0298	0.353	0.315
in vitro model: butyrate, time point: terminal (~4-5 doublings, model-specific)	0.0727	0.958	0.0122	0.184	0.0301
in vitro model: cholesterol 0.05 mM, time point: constant (~7 days, model-specific)	0.139	0.691	-0.14	0.356	–
in vitro model: cholesterol 0.05 mM, time point: terminal (~4-5 doublings, model-specific)	0.135	0.916	-0.324	4.8	-0.269
in vitro model: cholesterol-high 0.2 mM, time point: constant (~7 days, model-specific)	0.11	0.956	-0.355	0.569	–
in vitro model: cholesterol-high 0.2 mM, time point: terminal (~4-5 doublings, model-specific)	0.0902	0.997	-0.919	0.831	0.809
in vitro model: dormancy (butyrate + nitrate, low O2), time point: constant (~7 days, model-specific)	0.0701	0.891	0.192	0.857	0.12
in vitro model: dormancy (butyrate + nitrate, low O2), time point: terminal (~4-5 doublings, model-specific)	0.036	0.978	-0.111	0.231	0.0283
in vitro model: standard 7H9 glycerol, time point: constant = terminal	0.0756	0.899	0.148	0.299	-0.589
in vitro model: valerate, time point: constant (~7 days, model-specific)	0.0594	0.862	0.0129	0.491	–
in vitro model: valerate, time point: terminal (~4-5 doublings, model-specific)	0.035	0.934	0.0126	0.502	0.221

NNC(=O)c1ccncc1 [isoniazid] + CC(=O)NC[C@H]1CN(c2ccc(N3CCOCC3)c(F)c2)C(=O)O1 [linezolid] + COc1c(N2C[C@@H]3CCCN[C@@H]3C2)c(F)cc2c(=O)c(C(=O)O)cn(C3CC3)c12 [moxifloxacin]
Details	AUC25, [4]	Einf, [3]	GRinf, [5]	total FIC50, [1]	total FIC90, [2]
in vitro model: acidic pH 5.7, time point: constant (~7 days, model-specific)	0.109	0.747	-0.275	0.122	–
in vitro model: acidic pH 5.7, time point: terminal (~4-5 doublings, model-specific)	0.0728	0.923	-0.258	1.49	0.715
in vitro model: intracellular J774, time point: constant = terminal	–	0.893	-0.0263	–	0.67

Details	AUC25, [4]	Einf, [3]	GRinf, [5]	total FIC50, [1]	total FIC90, [2]
in vitro model: butyrate, time point: constant (~7 days, model-specific)	0.086	0.917	0.00606	0.711	0.963
in vitro model: butyrate, time point: terminal (~4-5 doublings, model-specific)	0.0553	0.956	0.0163	0.753	0.721
in vitro model: cholesterol 0.05 mM, time point: constant (~7 days, model-specific)	0.149	0.654	-0.302	0.796	–
in vitro model: cholesterol 0.05 mM, time point: terminal (~4-5 doublings, model-specific)	0.15	0.909	-0.444	4.95	0.24
in vitro model: cholesterol-high 0.2 mM, time point: constant (~7 days, model-specific)	0.114	0.933	-0.214	0.427	1.53
in vitro model: cholesterol-high 0.2 mM, time point: terminal (~4-5 doublings, model-specific)	0.105	1	-0.842	0.413	0.848
in vitro model: dormancy (butyrate + nitrate, low O2), time point: constant (~7 days, model-specific)	0.0474	0.851	0.271	1.12	0.548
in vitro model: dormancy (butyrate + nitrate, low O2), time point: terminal (~4-5 doublings, model-specific)	0.0316	0.974	-0.0773	1	0.562
in vitro model: standard 7H9 glycerol, time point: constant = terminal	0.0712	0.97	-0.21	0.644	0.854
in vitro model: valerate, time point: constant (~7 days, model-specific)	0.104	0.888	-0.0253	0.337	–
in vitro model: valerate, time point: terminal (~4-5 doublings, model-specific)	0.0614	0.935	-0.00928	0.575	0.805

NNC(=O)c1ccncc1 [isoniazid] + CC(=O)NC[C@H]1CN(c2ccc(N3CCOCC3)c(F)c2)C(=O)O1 [linezolid] + NC(=O)c1cnccn1 [pyrazinamide]
Details	AUC25, [4]	Einf, [3]	GRinf, [5]	total FIC50, [1]	total FIC90, [2]
in vitro model: acidic pH 5.7, time point: constant (~7 days, model-specific)	0.11	0.842	-0.287	-1.93	–
in vitro model: acidic pH 5.7, time point: terminal (~4-5 doublings, model-specific)	0.0984	0.983	-0.282	-1.83	-1.21
in vitro model: intracellular J774, time point: constant = terminal	–	0.956	-0.246	–	0.444

Details	AUC25, [4]	Einf, [3]	GRinf, [5]	total FIC50, [1]	total FIC90, [2]
in vitro model: butyrate, time point: constant (~7 days, model-specific)	0.108	0.91	0.0266	-1.9	1.62
in vitro model: butyrate, time point: terminal (~4-5 doublings, model-specific)	0.08	0.955	0.0226	-1.67	-1.24
in vitro model: cholesterol 0.05 mM, time point: constant (~7 days, model-specific)	0.144	0.686	-0.218	–	–
in vitro model: cholesterol 0.05 mM, time point: terminal (~4-5 doublings, model-specific)	0.14	0.89	-0.273	4.08	–
in vitro model: cholesterol-high 0.2 mM, time point: constant (~7 days, model-specific)	0.0969	0.893	-0.233	0.365	–
in vitro model: cholesterol-high 0.2 mM, time point: terminal (~4-5 doublings, model-specific)	0.0817	1	-0.765	0.683	0.315
in vitro model: dormancy (butyrate + nitrate, low O2), time point: constant (~7 days, model-specific)	0.0523	0.9	0.189	-1.89	-2.36
in vitro model: dormancy (butyrate + nitrate, low O2), time point: terminal (~4-5 doublings, model-specific)	0.0408	0.987	-0.229	-1.99	-2.42
in vitro model: standard 7H9 glycerol, time point: constant = terminal	0.0756	0.939	-0.0363	-5.13	–
in vitro model: valerate, time point: constant (~7 days, model-specific)	0.0944	0.836	0.0599	-2.58	–
in vitro model: valerate, time point: terminal (~4-5 doublings, model-specific)	0.0892	0.927	0.0322	-2.64	-3
